Results from patent US8703964B2, “Bendamustine cyclopolysaccharide compositions” (Supratek Pharma Inc., priority 2009, dated 2014).

Experiments:
[1] = system: Human breast carcinoma (MDA-MB 231) subcutaneous solid tumours; test: Human breast carcinoma MDA-MB 231 s.c. solid tumours in nude mice (Example 27); format: in vivo, balb/c nu/nu mice; conditions: 35 mg/kg
Description: balb/c mice aged 5 to 6 weeks were purchased from Charles River Canada Inc. The animals were kept 5 per cage with an air filter cover under light (12 light/dark cycle, light on at 6 H00) and temperature (22° C.±1° C.)-controlled environment. All manipulations of animals were performed under a sterilized laminar hood. The animals had ad libitum access to Purina mouse chow (Pro Lab PMH 4018, Trademark of Agway, Syracuse, N.Y.) and water. These animal studies were conducted according to the “Guidelines for Care and Use of Experimental Animals”. Tumor Cell Culture: Human breast cancer cells MDA-MB 231 were cultured in the appropriated culture medium. The cells were harvested in their logarithmic growth phase for the preparation of tumor implantation. Tumor Implantation: Human tumor or myeloma cells (2.5 to 5.0×10^6 cells) were implanted subcutaneously in 0.200 mL of medium containing 30% Matrigel on the two flanks of balb/c nu/nu mice through a 1 to 2 cm long 20-gauge needle. Treatments: 2 to 3 weeks after tumor cell implantation, animals that developed s.c. solid tumors were selected and divided into several homogeneous groups (n=5 animals per group or dose) with respect to tumor size (0.5 to 0.8 cm in diameter). The treatments were performed next day. The animals were dosed with the following dosing solutions. Control: (0.9%, NaCl) Compositions:
non-formulated Bendamustine, (35 mg/kg)
Bendamustine (35 mg/kg) in 40% SBECD, 1% protamine sulfate (formulated BM)
Subcutaneous solid tumor measurements were performed on the day of first injection and at 3- to 4-day intervals thereafter. The two largest perpendicular diameters of each tumor were measured with calipers and tumor sizes were estimated using the formula: TV=L×W/2 where TV: tumor volume; L: length; W: width. The body weights of animals were also noted.

[2] = Pharmacokinetics of bendamustine dosed to rats, composition with SBECD and cetylpyridinium chloride (Example 11); format: in vivo; conditions: female, Sprague-Dawley, rat, plasma, iv, i.v. 20 mg/kg, read-out: Concentration of bendamustine in rat plasma, Mean (SEM)
Description: Control: 6 mg/mL bendamustine hydrochloride, 10.2 mg/mL of mannitol in 0.9% NaCl; dose of 20 mg/kg
Inventive Composition: 5 mg/g bendamustine hydrochloride, 40% w/w sodium sulfobutyl ether β-cyclodextrin, 0.5% cetylpyridinium chloride, 8.5 mg/g mannitol in water (produced following the procedure of Example 8); dose of 20 mg/kg.
Female Sprague-Dawley rats (250-350 g). The animals were kept three per cage with an air filter cover under light (12 h light/dark cycle, light on at 06 h00) and controlled temperature 22° C.+/−1° C. All manipulations with the animals were performed under a sterilized laminar hood. The animals had ad libitum access to Purina mouse chow and water. The animals were fasted overnight and anesthetized, before dosing. Dosing and Sampling: The inventive bendamustine composition and control were administered intravenously to rats in tail vein. After time intervals of 5, 15, 30, 45 min, 1, 1.5, 2 and 3 hrs post-injection, blood samples were collected. The rats were anesthetized by general inhalation of isoflurane. The blood samples were collected from the jugular vein with heparinized tube and kept on ice. Blood was immediately centrifuged, and plasma was separated. The plasma samples were immediately extracted. Sample Extraction and Analysis: The plasma samples 0.100 mL were transferred to plastic tubes. The samples were extracted with 0.400 mL of 100 mM HCl in acetonitrile while being shaken vigorously for 30 seconds. The samples were centrifuged at 10000 RPM for 5 minutes. The supernatant was separated. The samples were frozen in dry ice and kept at −80° C. until HPLC analysis. 20 microliter aliquots were injected into the HPLC for analysis. The HPLC Conditions: C18 reversed phase column 50×4.6 mm, Symmetry/Shield 3.5 micrometer Column temperature 30° C. Flow rate 1.5 mL/min Injection volume 20 microliters Fluorescence detection at wavelengths: excitation 327 nm, emission 420 nm Mobile phase: Buffer A: 5% acetonitrile 0.1% TFA Buffer B: 90% acetonitrile 0.1% TFA Run time: 10 min The improved pharmacokinetic profiles of bendamustine for tested composition versus the control is shown in Table 1 below.

With `Cn1c(CCCC(=O)O)nc2cc(N(CCCl)CCCl)ccc21` [BM, 4-[5-[bis(2-chloroethyl)amino]-1-methylbenzimidazol-2-yl]butanoic acid] the “Tumor weight after treatment, Average (SEM)” value (“Tumor weight … (SEM)” below) ([1]; day 0) was 0.237 (0.008) g, the “Tumor weight … (SEM)” value ([1]; day 2) was 0.250 (0.028) g and the “Tumor weight … (SEM)” value ([1]; day 4) was 0.294 (0.027) g. For the same compound, the “Tumor weight … (SEM)” value ([1]; day 7) was 0.313 (0.030) g, the “Tumor weight … (SEM)” value ([1]; day 9) was 0.349 (0.038) g and the “Tumor weight … (SEM)” value ([1]; day 11) was 0.417 (0.046) g. The “Inhibition % vs control (on day 14)” value ([1]; day 14) was 70.2%, the “Tumor volume on day 14” value ([1]; day 14) was 0.54 ± 0.06 g and the “Tumor weight … (SEM)” value ([1]; day 14) was 0.537 (0.055) g. For the same compound, the “Body weight on day 14” value ([1]; nude mice with MDA-MB 231 tumours) was 18.1 ± 0.39 g, the concentration at 0.08 h ([2]; 0.08 h post injection) was 12300 ng/mL and the concentration at 0.25 h ([2]; 0.25 h post injection) was 7620 ng/mL. The concentration at 0.5 h ([2]; 0.5 h post injection) was 3050 ng/mL, the concentration at 0.75 h ([2]; 0.75 h post injection) was 966 ng/mL and the concentration at 1 h ([2]; 1 h post injection) was 414 ng/mL. It also gave a concentration at 1.5 h ([2]; 1.5 h post injection) of 133 ng/mL, a concentration at 2 h ([2]; 2 h post injection) of 54 ng/mL and a concentration at 3 h ([2]; 3 h post injection) of 9 ng/mL.
